AC50 data for 22 compounds are collected here from patent US12344610B2, “APOL1 inhibitors and methods of use” (Maze Therapeutics, Inc., priority 2022, dated 2025).

Structures are written as SMILES.

Broadly, the AC50 is the concentration at which the activity in the assay is half-maximal.

For this test, the target named is T1, APOL1 G2 (Homo sapiens, UniProt O14791, DEL388-389).
T1 construct: expressed in transfected cells; host or cells: HEK293 T-REx clonal line stably expressing GCaMP6f (HEK T-REx/GCaMP6f/APOL1 G2 K6.3), doxycycline induced
T1 sequence (O14791 with tags, fused parts or gaps DEL388-389): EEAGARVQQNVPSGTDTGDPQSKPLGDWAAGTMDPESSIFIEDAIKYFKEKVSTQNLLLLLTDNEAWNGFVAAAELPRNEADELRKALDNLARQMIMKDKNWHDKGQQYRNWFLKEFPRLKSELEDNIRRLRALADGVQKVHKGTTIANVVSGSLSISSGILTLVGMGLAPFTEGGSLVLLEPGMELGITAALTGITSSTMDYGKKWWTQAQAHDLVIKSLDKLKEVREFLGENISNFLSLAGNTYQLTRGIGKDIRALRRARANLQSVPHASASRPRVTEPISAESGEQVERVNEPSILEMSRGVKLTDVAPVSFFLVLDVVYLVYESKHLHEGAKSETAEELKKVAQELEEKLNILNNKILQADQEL
As to the kind of experiment: APOL1-mediated calcium transport (calcium influx) assay, HEK T-REx/GCaMP6f/APOL1 G2 K6.3 cells, FLIPR TETRA. In kind it is cell-based. Conditions: prevention of calcium influx; geometric mean of at least 2 assay runs; † = average of a technical replicate from a single assay run. In outline: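 A HEK293 T-REx clone stably expressing GCaMP6f had APOL1 G2 induced with doxycycline (20 ng/mL solution added) for 6 h. Cells were then washed into Ca2+-free Tyrode's buffer (pH 7.4) and preincubated with compounds (duplicate 8-point) for 10 min at room temperature. Ca2+ injection to 5 mM final produced FLIPR GCaMP fluorescence, giving AC50 for influx inhibition (geometric mean, ≥2 runs).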
For `CS(=O)(=O)c1ccc(OCCN2CCC3(CC2)C(=O)N(CCO)c2ccc(Cl)cc23)cc1` [Compound 18, 5-chloro-1-(2-hydroxyethyl)-1′-[2-(4-methanesulfonylphenoxy)ethyl]-1,2-dihydrospiro[indole-3,4′-piperidin]-2-one], the AC50 was found to be 0.24 µM.
With `COCCN1C(=O)C2(CCN(CCOc3ccc(S(C)(=O)=O)cc3)CC2)c2cc(Cl)ccc21` [Compound 20, 5-chloro-1′-[2-(4-methanesulfonylphenoxy)ethyl]-1-(2-methoxyethyl)-1,2-dihydrospiro[indole-3,4′-piperidin]-2-one], the AC50 came to 0.348 µM.
`CN1C(=O)C2(CCN(CCOc3ccc(S(=O)(=O)CCCS(C)(=O)=O)cc3)CC2)c2cc(Cl)ccc21` [Compound 23, 5-chloro-1′-{2-[4-(3-methanesulfonylpropanesulfonyl)phenoxy]ethyl}-1-methyl-1,2-dihydrospiro[indole-3,4′-piperidin]-2-one]: the AC50 was 0.514 µM.
In the case of `CS(=O)(=O)c1ccc(OCCN2CCC3(CC2)C(=O)N(CCO)c2ccc(Br)cc23)cc1` [Compound 24, 5-bromo-1-(2-hydroxyethyl)-1′-[2-(4-methanesulfonylphenoxy)ethyl]-1,2-dihydrospiro[indole-3,4′-piperidin]-2-one], the AC50 stood at 0.2 µM.
Under `COCCN1C(=O)C2(CCN(CCOc3ccc(S(C)(=O)=O)cc3)CC2)c2cc(C#N)ccc21` [Compound 25, 1′-[2-(4-methanesulfonylphenoxy)ethyl]-1-(2-methoxyethyl)-2-oxo-1,2-dihydrospiro[indole-3,4′-piperidine]-5-carbonitrile] stands 0.651 µM; under `CS(=O)(=O)c1ccc(OCCN2CCCC3(CC2)C(=O)Nc2ccccc23)cc1` (stereo not shown) [Compound 26, 1-(2-(4-(methylsulfonyl)phenoxy)ethyl)spiro[azepane-4,3′-indolin]-2′-one], 0.943 µM; under `CN1C(=O)CCc2cc(OCCN3CCC4(CC3)C(=O)Nc3ccc(Cl)cc34)ccc21` [Compound 27, 5-chloro-1′-[2-[(1-methyl-2-oxo-3,4-dihydroquinolin-6-yl)oxy]ethyl]spiro[indoline-3,4′-piperidine]-2-one], 0.51 µM.
Turning to `O=C1CCc2cc(OCCN3CCC4(CC3)C(=O)Nc3ccc(Cl)cc34)cnc2N1CCO` [Compound 192, 5-chloro-1′-(2-{[8-(2-hydroxyethyl)-7-oxo-5,6,7,8-tetrahydro-1,8-naphthyridin-3-yl]oxy}ethyl)-1,2-dihydrospiro[indole-3,4′-piperidin]-2-one], the AC50 came to 0.291 µM.
Under `CC(=O)N(C)CCS(=O)(=O)c1ccc(OCCN2CCC3(CC2)C(=O)Nc2ccc(Cl)cc23)cc1` [Compound 193, N-{2-[4-(2-{5-chloro-2-oxo-1,2-dihydrosiro[indole-3,4′-piperidin]-1′-yl}ethoxy)benzenesulfonyl]ethyl}-N-methylacetamide] stands 1.27 µM.
In the case of `CS(=O)(=O)C1(c2ccc(OCCN3CCC4(CC3)C(=O)Nc3ccc(Cl)cc34)cc2)COC1` [Compound 195, 5-chloro-1′-{2-[4-(3-methanesulfonyloxetan-3-yl)phenoxy]ethyl}-1,2-dihydrospiro[indole-3,4′-piperidin]-2-one], the AC50 turned out to be 0.604 µM.
`O=C1Nc2ccc(Cl)cc2C12CCN(CCOc1ccc3c(c1)CCS3(=O)=O)CC2` [Compound 196, 5-(2-{5-chloro-2-oxo-1,2-dihydrospiro[indole-3,4′-piperidin]-1′-yl}ethoxy)-2,3-dihydro-1λ^6-benzothiophene-1,1-dione]: the AC50 came to 0.696 µM.
Under `CS(=O)(=O)c1ccc(OCCN2CCC3(CC2)C(=O)Nc2ccc(Cl)cc23)cc1C(F)F` [Compound 197, 5-chloro-1′-{2-[3-(difluoromethyl)-4-methanesulfonylphenoxy]ethyl}-1,2-dihydrospiro[indole-3,4′-piperidin]-2-one] stands 0.889 µM; under `O=C1Nc2ccc(Cl)cc2C12CCN(CCOc1ccc(S(=O)(=O)CCO)cc1)CC2` [Compound 198, 5-chloro-1′-{2-[4-(2-hydroxyethanesulfonyl)phenoxy)ethyl}-1,2-dihydrospiro[indole-3,4′-piperidin]-2-one], 0.631 µM; under `CS(=O)(=O)Nc1ccc(OCCN2CCC3(CC2)C(=O)Nc2ccc(Cl)cc23)cc1` [Compound 214, N-[4-(2-{5-chloro-2-oxo-1,2-dihydrospiro[indole-3,4′-piperidin]-1′-yl}ethoxy)phenyl]methanesulfonamide], 0.355 µM.
Under `O=C1Nc2ccc(Cl)cc2C12CCN(CCOc1ccc(S(=O)(=O)[C@H]3C[C@H](O)C3)cc1)CC2` [Compound 215, 5-chloro-1′-[2-(4-{[(trans)-3-hydroxycyclobutyl]sulfonyl}phenoxy)ethyl]-1,2-dihydrospiro[indole-3,4′-piperidin]-2-one] stands 1.13 µM.
To `CS(=O)(=O)c1ccc(OCCN2CCC3(CC2)C(=O)Nc2ccc(Cl)cc23)cc1C(O)CO` (stereo not shown) [Compound 216, 5-chloro-1′-{2-[3-(1,2-dihydroxyethyl)-4-methanesulfonylphenoxy]ethyl}-1,2-dihydrospiro[indole-3,4′-piperidin]-2-one] belongs 3.14 µM; to `O=C1CCc2cc(OCCN3CCC4(CC3)C(=O)Nc3ccc(Cl)cc34)ccc2N1[C@H]1C[C@H](O)C1` [Compound 224, 5-chloro-1′-[2-({2-oxo-1-[(trans)-3-hydroxycyclobutyl]-1,2,3,4-tetrahydroquinolin-6-yl}oxy)ethyl]-1,2-dihydrospiro[indole-3,4′-piperidin]-2-one], 0.83 µM.
For `O=C1Nc2ccc(Cl)cc2C12CCN(CCOc1ccc(S(=O)(=O)C3(CO)CC3)cc1)CC2` [Compound 225, 5-chloro-1′-[2-(4-{[1-(hydroxymethyl)cyclopropyl]sulfonyl}phenoxy)ethyl]-1,2-dihydrospiro[indole-3,4′-piperidin]-2-one], the AC50 is 0.847 µM.
To `CNC(=O)C1(S(=O)(=O)c2ccc(OCCN3CCC4(CC3)C(=O)Nc3ccc(Cl)cc34)cc2)CC1` [Compound 226, 1-[4-(2-{5-chloro-2-oxo-1,2-dihydrospiro[indole-3,4′-piperidin]-1′-yl}ethoxy)benzenesulfonyl]-N-methylcyclopropane-1-carboxamide] belongs 1.08 µM; to `CN(C)C(=O)C1(S(=O)(=O)c2ccc(OCCN3CCC4(CC3)C(=O)Nc3ccc(Cl)cc34)cc2)CC1` [Compound 227, 1-[4-(2-{5-chloro-2-oxo-1,2-dihydrospiro[indole-3,4′-piperidin]-1′-yl}ethoxy)benzenesulfonyl]-N,N-dimethylcyclopropane-1-carboxamide], 1.11 µM.
Under `O=C1Nc2ccc(Cl)cc2C12CCN(CCOc1ccc(S(=O)(=O)C3(C(=O)N4CCC4)CC3)cc1)CC2` [Compound 228, 1′-[2-(4-{[1-(azetidine-1-carbonyl)cyclopropyl]sulfonyl}phenoxy)ethyl]-5-chloro-1,2-dihydrospiro[indole-3,4′-piperidin]-2-one] stands 1.2 µM; under `CNC(=O)c1ccc(OCCN2CCC3(CC2)C(=O)Nc2ccc(Cl)cc23)cc1F` [Compound 229, 4-(2-{5-chloro-2-oxo-1,2-dihydrospiro[indole-3,4′-piperidin]-1′-yl}ethoxy)-2-fluoro-N-methylbenzamide], 0.792 µM.
